# Literature values, collected in patent publication US20240156726A1, “MULTI-LAYER ORAL THIN FILM” (LTS LOHMANN THERAPIE-SYSTEME AG, priority 2021, published 2024).
# Conditions: compared with (R)-ketamine
structure (smiles),measurement,value
"CNC1(c2ccccc2Cl)CCCCC1=O (racemic) [(S)-ketamine, (S)-(±)-2-(2-chlorophenyl)-2-(methylamino)cyclohexan-1-one]",analgesic and anaesthetic potency relative to the (R) form,approximately three times higher
